Results: patent publication US11472766B2, “Lipid nanoparticle composition” (Suzhou Abogen Biosciences Co., Ltd., priority 2020, dated 2022)

Tests used:
[1] = Apparent pKa of LNP formulations (TNS fluorescence assay); conditions: LNP cationic lipid/DSPC/cholesterol/DMG-PEG 50/10/38.5/1.5 mol %
[2] = Lipid nanoparticle size by dynamic light scattering (Malvern Zetasizer Nano ZS); assay type: physicochemical; conditions: LNP: cationic lipid/DSPC/cholesterol/PEG-lipid 50:10:38.5:1.5, hEPO mRNA
Procedure: (§1) Briefly, a cationic lipid provided herein, DSPC, cholesterol, and PEG-lipid were solubilized in ethanol at a molar ratio of 50:10:38.5:1.5, and mRNA were diluted in 10 to 50 mM citrate buffer, pH=4. The LNPs were prepared at a total lipid to mRNA weight ratio of approximately 10:1 to 30:1 by mixing the ethanolic lipid solution with the aqueous mRNA solution at a volume ratio of 1:3 using a microfluidic apparatus, total flow rate ranging from 9-30 mL/min. Ethanol were thereby removed and replaced by DPBS using dialysis. Finally, the lipid nanoparticles were filtered through a 0.2 μm sterile filter.
(§2) Lipid nanoparticle size were determined by dynamic light scattering using a Malvern Zetasizer Nano ZS (Malvern UK) using a 173° backscatter detection mode. The encapsulation efficiency of lipid nanoparticles were determined using a Quant-it Ribogreen RNA quantification assay kit (Thermo Fisher Scientific, UK) according to the manufacturer's instructions.

[3] = Encapsulation efficiency of lipid nanoparticles (Quant-it Ribogreen RNA quantification assay); assay type: physicochemical; conditions: LNP encapsulating hEPO mRNA
Procedure: as §1, §2

[4] = test system: human erythropoietin (hEPO) mRNA; experiment: Animal study: hEPO expression after tail vein injection of LNPs encapsulating hEPO mRNA (serum ELISA); assay type: in vivo; conditions: hEPO level, female ICR mice, 0.5 mg/kg, 6 hours post administration; for Expression at 6 h: Table 2; for Expression at 6 h (μg/ml): class symbols, Table 3
Procedure: Lipid nanoparticles comprising compounds 1-10 encapsulating human erythropoietin (hEPO) mRNA were systemically administered to 6-8 week old female ICR mice (Xipuer-Bikai, Shanghai) at 0.5 mg/kg dose by tail vein injection and mice blood were sampled at specific time points (e.g., 6 hours) post administration. In addition to the aforementioned tested groups, lipid nanoparticles comprising dilinoleylmethyl-4-dimethylaminobutyrate (DLin-MC3-DMA, usually abbreviated to MC3) encapsulating hEPO mRNA were similarly administered at the same dose to age and gender comparative groups of mice as a positive control.
Mice were euthanized by CO2 overdoses after the last sampling time point. Serum were separated from total blood by centrifugation at 5000 g for 10 minutes at 4° C., snap-frozen and stored at −80° C. for analysis. ELSA assay were carried out using a commercial kit (DEP00, R&D systems) according to manufacturer's instructions.
Characteristics of tested lipid nanoparticles, including hEPO expression levels (μg/ml) measured from the tested group are listed the tables below and plotted in FIG. 2.

Structure (SMILES) | Apparant Pka ([1]; Table 2) | polydispersity ([2]; Table 2) | size nm ([2]; Table 2) [nm] | Encapsulation Efficiency ([3]; Table 2) [%] | Expression at 6 h [4] [µg/mL] | Apparant Pka ([1]; Table 3) | polydispersity ([2]; Table 3) | size nm ([2]; Table 3) [nm] | Encapsulation Efficiency ([3]; Table 3) [%] | Expression at 6 h (μg/ml) [4]
CCCCCCCCC(CCCCCC)COC(=O)CCCCCN(CCCCCC(=O)OCC(CCCCCC)CCCCCCCC)CCN(CCO)CCCCCC (stereo not shown) [Compound D] | 6.28 | 0.118 | 59.2 | 95.5 | 1.02 |  |  |  |  | 
CCCCCCCCC(CCCCCC)COC(=O)CCCCCN(CCCCCC(=O)OCC(CCCCCC)CCCCCCCC)CCN(CCCO)C1CCC1 (stereo not shown) [Compound 28] |  |  |  |  |  | 6.529 | 0.002 | 79.82 | 96.5 | A (≥2)
CCCCCCC(CCCCCC)CNC(=O)CCCCCN(CCCCCC(=O)OCC(CCCCCC)CCCCCC)CCN(CCO)C1CCCC1 [Compound 140] |  |  |  |  |  | 6.981 | 0.075 | 138.7 | 83.4 | A (≥2)
CCCCCCCCC(CCCCCC)COC(=O)CCCCCN(CCCCCC(=O)OCC(CCCCCC)CCCCCCCC)CCN(C1CCC1)C1CCC(O)CC1 (stereo not shown) [Compound 93] |  |  |  |  |  | 6.491 | 0.041 | 93.74 | 98.3 | A (≥2)
CCCCCCCCC(CCCCCC)CC(=O)NCCCCCN(CCCCCOC(=O)CC(CCCCCC)CCCCCCCC)CCN(CCO)C1CCC1 (stereo not shown) [Compound 108] |  |  |  |  |  | 6.711 | 0.064 | 80.78 | 95.6 | A (≥2)
CCCCCCCCCCCOC(=O)CCCCCN(CCCCCC(=O)NCC(CCCCCCCC)CCCCCCCC)CCN(CCO)C1CCC1 [Compound 146] |  |  |  |  |  | 7.496 | 0.052 | 66.27 | 94.6 | B (≥1 and <2)
CCCCCCCCC(CCCCCC)COC(=O)NCCCCN(CCCCNC(=O)OCC(CCCCCC)CCCCCCCC)CCN(CCO)C1CCCC1 (stereo not shown) [Compound 125] |  |  |  |  |  | 6.833 | 0.116 | 72.36 | 95.6 | A (≥2)
CCCCCCCCC(CCCCCC)CNC(=O)CCCCCN(CCCCCC(=O)NCC(CCCCCC)CCCCCCCC)CCN(CCC)C1CCC(O)CC1 (stereo not shown) [Compound 135] |  |  |  |  |  | 6.652 | 0.035 | 104.1 | 85.6 | C (≥0.1 and <1)
CCCCCCCCC(CCCCCC)CNC(=O)CCCCCN(CCCCCC(=O)NCC(CCCCCC)CCCCCCCC)CCN(CCO)C1CCCC1 (stereo not shown) [Compound 111] |  |  |  |  |  | 6.668 | 0.049 | 92.3 | 89.0 | B (≥1 and <2)
CCCCCCCCC(CCCCCC)CC(=O)NCCCCCN(CCCCCOC(=O)CC(CCCCCC)CCCCCCCC)CCN(CCO)C1CC1 (stereo not shown) [Compound 117] |  |  |  |  |  | 6.72 | 0.157 | 76.79 | 95.2 | A (≥2)
CCCCCCCCC(CCCCCC)COC(=O)CCCCCN(CCCCCC(=O)OCC(CCCCCC)CCCCCCCC)CCN(CC(O)CCCC)C1CCC1 (stereo not shown) [Compound 33] |  |  |  |  |  | 5.315 | 0.091 | 62.2 | 94.5 | D (<0.1)
CCCCCCCCC(CCCCCC)COC(=O)CCCCCN(CCCCCC(=O)OCC(CCCCCC)CCCCCCCC)CCN(CCCCCCCCO)C1CCC1 (stereo not shown) [Compound 31] |  |  |  |  |  | 5.822 | 0.076 | 71.64 | 92.4 | C (≥0.1 and <1)
CCCCCCCCC(CCCCCCCC)COC(=O)CCOCCN(CCOCCC(=O)OCC(CCCCCCCC)CCCCCCCC)CCN(CCO)C1CCCCC1 [Compound 104] |  |  |  |  |  | 6.184 | 0.022 | 70.93 | 89.96 | A (≥2)
CCCCCCCCC(CCCCCC)CC(=O)COCCCCN(CCCCCOC(=O)CC(CCCCCC)CCCCCCCC)CCN(CCO)C1CC1 (stereo not shown) [Compound 24] |  |  |  |  |  | 6.087 | 0.077 | 64.96 | 95.4 | C (≥0.1 and <1)
CCCCCCCCC(CCCCCCCC)CNC(=O)CCCCCN(CCCCCC(=O)OCC(CCCCCCCC)CCCCCCCC)CCN(CCO)C1CCCCCC1 [Compound 139] |  |  |  |  |  | 6.518 | 0.052 | 67.31 | 92.64 | A (≥2)
CCCCCCC(CCCCCC)COC(=O)CCCCCN(CCCCCC(=O)OCC(CCCCCC)CCCCCC)CCN(CCO)C1CCC1 [Compound 48] |  |  |  |  |  | 6.347 | 0.065 | 72.52 | 91.80 | A (≥2)
CCCCC/C=C\CCCC(CCC/C=C\CCCCC)COC(=O)CCCCCN(CCCCCC(=O)OCC(CCC/C=C\CCCCC)CCC/C=C\CCCCC)CCN(CCO)C1CCC1 [Compound 66] |  |  |  |  |  | 6.036 | 0.064 | 63.86 | 80.0 | B (≥1 and <2)
CCCCCCCCC(CCCCCC)CNC(=O)CCCCCN(CCCCCC(=O)NCC(CCCCCC)CCCCCCCC)CCN(CCO)C1CCCCC1 (stereo not shown) [Compound 120] |  |  |  |  |  | 6.264 | 0.1 | 59.78 | 97.1 | B (≥1 and <2)
CCCCCCCCC(CCCCCC)COC(=O)CCCCCC(CCCCCC(=O)OCC(CCCCCC)CCCCCCCC)CN(CCO)C1CCC1 (stereo not shown) [Compound 15] |  |  |  |  |  | 9.21 | 0.313 | 51.17 | 89.8 | D (<0.1)
CCCCCCCCC(CCCCCCCC)CNC(=O)CCCCCN(CCCCCC(=O)OCC(CCCCCCCC)CCCCCCCC)CCN(CCO)C1CCCCC1 [Compound 138] |  |  |  |  |  | 6.688 | 0.013 | 63.52 | 94.50 | A (≥2)
CCCCCCCCC(CCCCCCCC)CNC(=O)CCCCCN(CCCCCC(=O)NCC(CCCCCCCC)CCCCCCCC)CCN(CCO)C1CCCCC1 [Compound 137] |  |  |  |  |  | 6.751 | 0.029 | 60.84 | 95.29 | A (≥2)
CCCCCCCCC(CCCCCC)COC(=O)CCCCCN(CCCCCC(=O)OCC(CCCCCC)CCCCCCCC)CCN(CCO)C1CCCCCCC1 (stereo not shown) [Compound 6] | 5.88 | 0.109 | 60.5 | 96.6 | 0.00 |  |  |  |  | 
CCCCC/C=C\CCCOC(=O)CCCCCN(CCCCCC(=O)OCCC/C=C\CCCCC)CCN(CCO)C1CCC1 [Compound 62] |  |  |  |  |  | 6.438 | 0.156 | 244.8 | 36.2 | D (<0.1)
CCCCCCCCC(CCCCCC)COC(=O)NCCCCN(CCCCNC(=O)OCC(CCCCCC)CCCCCCCC)CCN(CCO)C1CCCCC1 (stereo not shown) [Compound 124] |  |  |  |  |  | 6.984 | 0.061 | 64.66 | 96.9 | A (≥2)
CCCCCCCCC(CCCCCC)COC(=O)CCCCCN(CCCCCC(=O)OCC(CCCCCC)CCCCCCCC)CCN(CCO)C1CCOCC1 (stereo not shown) [Compound 89] |  |  |  |  |  | 6.7 | 0.028 | 84.53 | 94.6 | A (≥2)
CCCCCCCCCCCOC(=O)CCCCCN(CCCCCC(=O)OCC(CCCCCCCC)CCCCCCCC)CCN(CCO)C1CCCCC1 [Compound 83] |  |  |  |  |  | 6.328 | 0.087 | 67.62 | 93.5 | B (≥1 and <2)
